{"source": "paper PMC11755562", "about": "“Peptide Inhibitor Assay for Allocating Functionally Important Accessible Sites Throughout a Protein Chain: Restriction Endonuclease EcoRI as a Model Protein System” (BioTech, 2024)", "key": {"EcoRI [1]": {"target": "T1, EcoRI (Escherichia coli, UniProt P00642)", "T1 construct": "The first M is removed after translation in this protein; purchased New England Biolabs", "T1 sequence (P00642 2-277)": "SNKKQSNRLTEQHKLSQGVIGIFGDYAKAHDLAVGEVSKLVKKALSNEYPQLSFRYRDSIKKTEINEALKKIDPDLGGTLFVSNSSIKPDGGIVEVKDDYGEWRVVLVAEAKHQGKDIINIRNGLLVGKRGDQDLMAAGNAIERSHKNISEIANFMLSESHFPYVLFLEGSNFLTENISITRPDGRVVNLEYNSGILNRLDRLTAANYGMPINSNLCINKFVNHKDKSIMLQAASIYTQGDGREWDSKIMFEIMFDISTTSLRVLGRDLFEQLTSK", "assay": "Nonspecific nuclease activity of EcoRI reaction mixture with peptide (plasmid DNA degradation)", "type": "biochemical", "details": "EcoRI plus peptide 1:500, 3 h; n = 3", "protocol": "A recombinant plasmid, pCRII-TOPO (Invitrogen, Waltham, MA, USA), containing a PCR fragment of the full-length cDNA (978 bp) of the mouse odorant receptor OR23 [82, 83, 84, 85, 86] at the EcoRI cloning site (GAATTC) was used as a DNA substrate for EcoRI. […] This pCRII-TOPO-OR23 plasmid was prepared from TOP10F’ Escherichia coli (Invitrogen) using ATP Plasmid Mini Kit (ATP Biotech, Taipei, ROC). The plasmid solution was prepared at 40 ng/μL by adding autoclaved DNase-free RNase-free deionized H2O (Nippon Gene, Tokyo, Japan). The DNA concentrations were measured with a Qubit fluorometer (Invitrogen).\n(§1) All master solutions and samples were prepared on ice. A single reaction tube contained the following common ingredients: autoclaved DNase-free RNase-free deionized H2O (12.5 μL) (Nippon Gene), 10× NE Buffer Mg^2+-free (2.0 μL), pCRII-TOPO-OR23 plasmid DNA (2.0 μL of 40 ng/μL solution), MgCl2 (1.5 μL of 0.20 mM solution), and EcoRI (1.0 μL). A master solution containing these ingredients without DMSO or a peptide was first prepared for the number of sample tubes. The master solution was aliquoted into 1.5 mL spin tubes (19.0 μL per tube). Then, 1.0 μL of DMSO or a peptide sample was added, and the mixture was incubated at 37 °C. A negative control with DMSO but without a peptide (“no peptide” control) was run in every assay. When the digestion efficiency was compared, another negative control with autoclaved DNase-free RNase-free H2O without EcoRI was prepared. After the reaction, the samples were quickly cooled on ice for ten minutes and then stored at −80 °C until agarose gel electrophoresis. The above protocol was conducted for all peptides (including BP19.5, BP19.5N, and BP19.5C) used in the present study unless otherwise noted.\nThis reaction mixture containing EcoRI and BP19.5 appeared to degrade the plasmid DNA entirely. […] The DNA concentration at 3 h was 3.297 ± 0.006 ng/μL without any peptide in the reaction mixture and 0.332 ± 0.003 ng/μL with BP19.5, indicating a statistically significant difference (n = 3; unpaired bi-sided Student’s t-test; p = 1.6 × 10^−11). […] Therefore, BP19.5 and its derivatives are likely to cause EcoRI to become a nonspecific nuclease. In other words, BP19.5 was likely a specificity/activity modifier of EcoRI instead of an inhibitor."}, "EcoRI [2]": {"target": "T1, EcoRI", "assay": "Peptide inhibitor assay (PIA): EcoRI digestion of pCRII-TOPO-OR23 plasmid, fluorescence intensity of the excised OR23 band on agarose gel", "type": "biochemical", "details": "3 h", "protocol": "Peptide synthesis was performed by GenScript Japan (Tokyo, Japan). All peptides were confirmed to be more than 75% pure via high-performance liquid chromatography (HPLC) and to have theoretical molecular weights via mass spectrometry (MS). The peptides were dissolved in DMSO (dimethyl sulfoxide) and were prepared at 5.59 × 10^−9 mol/μL (5.59 mM). When 1.0 μL of this peptide mixture was mixed in a tube for the inhibition of EcoRI catalytic activity, the molar ratio of EcoRI to peptide was 1:500. This concentration in molar equivalence was used throughout this study unless otherwise noted.\nPurified and concentrated EcoRI (20,000 U/mL, approximately 338 μg/mL, 1.12 × 10^−[…]) was obtained from New England Biolabs (Ipswich, MA, USA). To quantify and visualize the inhibitory effects of the peptides, the enzymatic reaction conditions were set so that at least three hours of incubation were required to completely digest the substrate plasmid DNA with EcoRI. To do so, we used a low Mg^2+ concentration (0.015 mM) in the reaction mixture in contrast to the optimum concentration of Mg^2+ for EcoRI (10 mM).\nas §1\nTo quantify EcoRI activity after incubation of a reaction mixture, digested pCRII-TOPO-OR23 plasmid DNA was examined via agarose gel electrophoresis. We first prepared a 25 mL solution of 1.0% agarose (Nippon Gene) in TAE (Tris-acetate-EDTA) buffer (Promega, Madison, WI, USA) to produce an agarose gel. An ethidium bromide solution (0.5 μL of 10 mg/mL) (Promega) was added before gelation. After incubation with EcoRI, the fluorescence intensity of the band of the excised OR23 fragment was measured via an ImageQuant LAS4000 (GE Healthcare Japan, Tokyo, Japan) with the following conditions: “Exposure Type”: Precision; “Exposure Time”: Manual 1/8 sec; “Sensitivity/Resolution”: Standard; and “Fluorescent Method”: Epi illumination; EtBr; UV (Trans UV) light; 6-5DF50 Filter; and F2.8 Iris.\nFor statistical analyses, Student’s t-test (unpaired and bi-sided), Dunnett’s test, and Pearson correlation analysis were performed via Microsoft Excel (Office 365) and JSTAT (Yokohama, Japan). The Dunnett’s test was performed for each experimental group that was examined simultaneously in the laboratory, in comparison to the “no peptide” control group that was examined simultaneously. The repeated measure mode of the Dunnett’s test was used on the assumption that there was no interaction between samples."}}, "note": "Entries after “also recorded” stand apart in the source; their conditions may differ."}
{"sequence": "NLCINKFVNHKDK [BP20]", "values": [{"measurement": "plasmid DNA degradation / nonspecific nuclease induction (agarose gel electrophoresis, in words)", "setting": "EcoRI [1]", "result": "does not induce nuclease activity"}, {"measurement": "level of inhibitory effect on EcoRI (in words)", "setting": "EcoRI [2]; EcoRI:peptide 1:500, relative fluorescence intensity, n = 3", "result": "especially notable; also recorded: strong inhibitory effect; also recorded: most effective"}, {"measurement": "relative fluorescence intensity of excised OR23 fragment", "setting": "EcoRI [2]; relative to no peptide, EcoRI:peptide 1:500 molar ratio, 37 °C, 0.015 mM Mg2+, mean of n = 3", "result": "less than 0.3"}]}
